{
  "source": "patent EP3120851A1",
  "about": "“4-AMINO-6-(2,6-DICHLOROPHENYL)-8-METHYL-2-(PHENYLAMINO)-PYRIDO[2,3-D]PYRIMIDIN-7(8H)-ONE FOR TREATMENT OF SOLID CANCERS” (Pangaea Biotech S.L., priority 2015, dated 2017)",
  "key": {"[1]": {"test_system": "mantle cell lymphoma (MCL) cell lines", "conditions": "Eur. J. Med. Chem., 2014, 86, 664-675; cited from earlier work"}, "H3122 Cells": {"test_system": "H3122 Cells", "test": "MTT cell viability assay, combinations (Chou-Talalay method)", "format": "cell-based", "conditions": "Homo sapiens", "experimental": "(§1) The combinations comprising the compound of formula (1) were tested using an MTT proliferation assay in a panel of tumor cell lines of different origins. All culture materials were obtained from the sources described in Example 2. In the Chou-Talalay method, which is the standard, universally known methodology to determine drug interactions, the two drugs under study are maintained at a fixed ratio of IC50 single agent (drug 1):IC50 single agent (drug 2) while the concentration of total amount of drugs in the combination is varied and the 20% (IC20), 50% (IC50) and 80% (IC80) of growth inhibition of the combination is determined.\n(§2) In the activity assays on cell lines the following terms are used: • IC50: Drug concentration at which 50% growth inhibition is achieved. • TKI IC50: The IC50 of the tyrosine kinase inhibitor as single agent. • Compound (1) IC50: The IC50 of compound (1) as single agent. • CI@IC20: The combination index of the combination consisting of drug 1 and drug 2 at a weight ratio equal to IC50 of drug 1:IC50 of drug 2 wherein said combination is used at a total amount that achieves 20% of growth inhibition. • CI@IC50: The combination index of the combination consisting of drug 1 and drug 2 at a weight ratio equal to IC50 of drug 1:IC50 of drug 2, wherein said combination is used at a total amount that achieves 50% of growth inhibition. • CI@IC80: The combination index of the combination consisting of drug 1 and drug 2 at a weight ratio equal to IC50 of drug 1:IC50 of drug 2, wherein said combination is used at a total amount that achieves 80% of growth inhibition. • Combination TKI IC50: The combination index at a tyrosine kinase inhibitor concentration that corresponds to the IC50 (single agent). • The combination index (CI) concept was introduced by Chou T.C. and Talalay P.(Chou TC, Talalay P. Adv Enzyme Regul 1984;22:27-55). The derived combination index equation for two drugs is (D = dosage or concentration): CI = ((D)1)/((Dx)1) + ((D)2)/((Dx)2) [formula] where (Dx)1 is the concentration of drug 1 \"alone\" that inhibits growth at a x% (i.e. (D50)1 is the concentration of drug 1 \"alone\" that inhibits growth at a 50%), (Dx)2 is the concentration of drug 2 \"alone\" that inhibits growth at a x%, (D)1 and (D)2 refer to the concentration of drug 1 and drug 2, respectively, in the combination, wherein the combination inhibits growth at the same x%. The CI Value quantitatively defines synergism (CI<1) (in particular, CI values of CI<0.7 indicates strong synergism, 0.7<CI<0.85 indicates moderate synergism, 0.85<CI<1 indicates slight synergism), additive effect (CI=1) and antagonism (CI>1). Based on the above equation, a plot of CI values at different effect levels (fa's) can be determined. Entering a series of \"dose\" ((D1), (D2), ((Dx)1 and (Dx)2) and % of growth inhibition (%x or effect (fa))\" into an excel sheet for each drug alone and their combinations, the CI values at different x% (or fa levels) are obtained using the above equation. This plot is also called the Fa-CI plot or the Chou-Talalay plot.\n(§3) Cell viability in response to combination treatment was assessed by the Thiazolyl Blue Tetrazolium Bromide (MTT) (Sigma, St Louis, MO) assay. Cells from each cell line were seeded at 2000 to 10000 per well in 96-well plates. […] Twenty-four hours after seeding, cells were exposed to compound (1), commercial drug or combinations thereof for 72 h. In the Chou-Talalay method, which is the standard, universally known methodology to determine drug interactions, the two drugs under study are maintained at a fixed ratio IC50 single agent (drug 1):IC50 single agent (drug 2).\n(§4) After treatment, cells were incubated with medium containing MTT (0.75 mg/mL in medium) for 1-2 h at 37°C. Culture medium with MTT was removed and formazan crystals reabsorbed in 100 µL DMSO (Sigma, St. Louis, MO). Cell viability was determined by measuring the absorbance at 492 nm, using a microplate reader (BioWhittaker, Walkersville, MD)."}, "H2228 Cells": {"test_system": "H2228 Cells", "test": "MTT cell viability assay, combinations (Chou-Talalay method)", "format": "cell-based", "conditions": "Homo sapiens, NCI-H2228", "experimental": "as §1, §2, §3, §4"}, "HCC78 cells": {"test_system": "HCC78 cells", "test": "MTT cell viability assay, combinations (Chou-Talalay method)", "format": "cell-based", "conditions": "Homo sapiens", "experimental": "as §1, §2, §3, §4"}},
  "note": "Read-outs that look alike come from different tables or passages of the source.",
  "data": [
    {"smiles": "Cn1c(=O)c(-c2c(Cl)cccc2Cl)cc2c(N)nc(Nc3ccccc3)nc21", "note": "[Compound (1), 4-amino-6-(2,6-dichlorophenyl)-8-methyl-2-(phenylamino)-pyrido[2,3-d]pyrimidin-7(8H)-one]", "values": [
      {"measurement": "cytostatic activity", "setting": "[1]", "value": "good cytostatic activity"},
      {"measurement": "IC50", "setting": "H3122 Cells; NCI-H3122, 72 h, H3122 cells, compound (1) as single agent, 72 h, read-out: Compound (1) IC50", "value": 1300, "unit": "nM"},
      {"measurement": "IC50", "setting": "H3122 Cells; NCI-H3122, H3122 cells, compound (1) in combination with Alectinib, read-out: Combination Compound (1) IC50", "value": 240, "unit": "nM"},
      {"measurement": "IC50", "setting": "H3122 Cells; NCI-H3122, H3122 cells, compound (1) in combination with Crizotinib, read-out: Combination Compound (1) IC50", "value": 500, "unit": "nM"},
      {"measurement": "IC50", "setting": "H2228 Cells; H2228 cells, compound (1) as single agent, 72 h, read-out: Compound (1) IC50", "value": 809, "unit": "nM"},
      {"measurement": "IC50", "setting": "H2228 Cells; read-out: Combination Compound (1) IC50", "value": 410, "unit": "nM"},
      {"measurement": "IC50", "setting": "HCC78 cells; HCC78, 72 h, HCC78 cells, compound (1) as single agent, 72 h, read-out: Compound (1) IC50", "value": 800, "unit": "nM"},
      {"measurement": "IC50", "setting": "HCC78 cells; HCC78, HCC78 cells, compound (1) in combination with Crizotinib, read-out: Combination Compound (1) IC50", "value": 430, "unit": "nM"},
      {"measurement": "IC50", "setting": "HCC78 cells; HCC78, HCC78 cells, compound (1) in combination with Foretinib, read-out: Combination Compound (1) IC50", "value": 210, "unit": "nM"}
    ]}
  ]
}
